Like-named read-outs stand apart in the source and are kept apart here.
Legend:
[1] = target: human rhinovirus 16 polymerase (HRV16pol) (Human rhinovirus 16, UniProt Q82122); experiment: biochemical
NS5B570-Con1 (Delta-21) = NS5B570-Con1 (Delta-21) (Hepatitis C virus genotype 1b, UniProt Q9WMX2); experiment: biochemical; design: species or system HCV
Human rhinovirus 1B = experiment: Picornavirus assay (CPE, CellTiter-Glo, HeLa-OHIO cells); assay type: cell-based; settings: Rhinovirus A, 96 h
[2] = HRV16pol, 2.5 h at 30° C., mean of several independent experiments, read-out: IC50
[3] = Human rhinovirus 1B, HeLa-OHIO cells, 4 d at 33° C., read-out: EC50

human rhinovirus 16 polymerase (HRV16pol), sequence (Q82122 1694-2153 limits assumed): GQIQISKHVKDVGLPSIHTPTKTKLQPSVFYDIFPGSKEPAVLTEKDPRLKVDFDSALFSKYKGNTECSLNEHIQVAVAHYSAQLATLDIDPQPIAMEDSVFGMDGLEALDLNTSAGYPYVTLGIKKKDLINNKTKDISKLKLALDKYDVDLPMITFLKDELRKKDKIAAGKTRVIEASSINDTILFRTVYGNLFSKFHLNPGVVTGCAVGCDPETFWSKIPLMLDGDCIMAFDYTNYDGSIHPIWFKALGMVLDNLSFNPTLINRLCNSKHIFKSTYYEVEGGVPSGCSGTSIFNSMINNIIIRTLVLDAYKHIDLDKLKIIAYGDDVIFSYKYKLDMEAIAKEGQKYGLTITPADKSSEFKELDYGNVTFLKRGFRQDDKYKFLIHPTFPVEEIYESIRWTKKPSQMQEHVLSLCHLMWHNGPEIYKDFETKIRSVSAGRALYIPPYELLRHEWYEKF

| Compound | IC50 [1, 2] | IC50 (NS5B570-Con1 (Delta-21)) | other results |
| --- | --- | --- | --- |
| C[C@]1(N=[N+]=[N-])[C@H](n2ccc(N)nc2=O)O[C@](F)(COP(=O)(O)OP(=O)(O)OP(=O)(O)O)[C@H]1O [compound 208] | < 10 µM | < 1 µM | – |
| C=C=C[C@@]1(O)[C@H](O)[C@@](CF)(COP(=O)(O)OP(=O)(O)OP(=O)(O)O)O[C@H]1n1ccc(=O)[nH]c1=O [compound 255] | < 10 µM | 1 to 10 µM | – |
| Nc1ccn([C@@H]2O[C@@](CO)(CCl)[C@@H](O)C2(F)F)c(=O)n1 [Compound 69] | – | – | EC50 (Human rhinovirus 1B; [3]): 1 to 10 µM |
| C=C[C@]1(COP(=O)(O)OP(=O)(O)OP(=O)(O)O)O[C@@H](n2ccc(N)nc2=O)C(F)(F)[C@@H]1O [compound 79] | < 10 µM | 10 to 100 µM | – |
| CC(C)OC(=O)[C@H](C)NP(=O)(OC[C@@]1(F)O[C@@H](n2ccc(=O)[nH]c2=O)[C@](C)(O)[C@@H]1O)Oc1ccccc1 (stereo partly drawn) [Compound 5] | – | – | EC50 (Human rhinovirus 1B): 10 to 100 µM |
| COCC(COC)OC(=O)OCOP(=O)(OCOC(=O)OC(COC)COC)OC[C@@]1(CF)O[C@@H](n2ccc(=O)[nH]c2=O)[C@](C)(O)[C@@H]1O [Compound 66] | – | – | EC50 (Human rhinovirus 1B; [3]): 10 to 100 µM |
| C[C@]1(O)[C@H](n2ccc(=O)[nH]c2=O)O[C@@](COP(=O)(O)OP(=O)(O)OP(=O)(O)O)(C(F)F)[C@H]1O [compound 273] | < 10 µM | 10 to 100 µM | – |
| C#C[C@]1(O)[C@H](n2cnc3c(N)ncnc32)O[C@](C)(COP(=O)(O)OP(=O)(O)OP(=O)(O)O)[C@H]1O [compound 59] | < 100 µM | 1 to 10 µM | – |
| C#C[C@@]1(O)[C@H](O)[C@@H](COP(=O)(O)OP(=O)(O)OP(=O)(O)O)O[C@H]1n1cnc2c(=O)[nH]c(N)nc21 [compound 203] | – | < 1 µM | – |
| Nc1ccn([C@@H]2O[C@@](COP(=O)(O)OP(=O)(O)OP(=O)(O)O)(C(F)F)[C@H](O)[C@@H]2F)c(=O)n1 [compound 168] | < 10 µM | – | – |
| CCOc1nc(N)nc2c1ncn2[C@@H]1O[C@]2(F)CO[P@@](=O)(OC(C)C)O[C@H]2[C@@]1(C)F [Compound 87] | – | – | EC50 (Human rhinovirus 1B; [3]): 1 to 10 µM |
| CC(=O)O[C@H]1[C@@](C)(O)[C@H](n2ccc(=O)[nH]c2=O)O[C@]1(F)COP(=O)(N[C@@H](C)C(=O)OC(C)C)Oc1ccc(Cl)cc1 (stereo partly drawn) [Compound 153] | – | – | EC50 (Human rhinovirus 1B): 1 to 10 µM |
| O=c1ccn([C@@H]2O[C@](CCl)(COP(=O)(O)OP(=O)(O)OP(=O)(O)O)[C@@H](O)C2(F)F)c(=O)[nH]1 [compound 73] | < 10 µM | 10 to 100 µM | – |
| CC(C)OC(=O)[C@H](C)NP(=O)(OC[C@@]1(F)O[C@@H](n2ccc(=O)[nH]c2=O)[C@](C)(O)[C@@H]1O)Oc1ccc(Cl)cc1 (stereo partly drawn) [Compound 152] | – | – | EC50 (Human rhinovirus 1B): 1 to 10 µM |
| CC(C)(C)C(=O)OCOP(=O)(OCOC(=O)C(C)(C)C)OC[C@@]1(F)O[C@@H](n2ccc(=O)[nH]c2=O)[C@](C)(O)[C@@H]1O [Compound 151] | – | – | EC50 (Human rhinovirus 1B; [3]): < 1 µM |
| [N-]=[N+]=NC[C@]1(COP(=O)(O)OP(=O)(O)OP(=O)(O)O)O[C@@H](n2ccc(N)nc2=O)C(F)(F)[C@@H]1O [compound 274] | < 10 µM | – | – |
| C[C@]1(O)[C@H](n2ccc(=O)[nH]c2=O)O[C@](C)(COP(=O)(O)OP(=O)(O)OP(=O)(O)O)[C@H]1O [compound 58] | < 10 µM | – | – |
| C#C[C@]1(F)[C@H](n2ccc(=O)[nH]c2=O)O[C@](F)(COP(=O)(O)OP(=O)(O)OP(=O)(O)O)[C@H]1O [compound 215] | < 10 µM | – | – |
| C[C@@]1(O)[C@H](O)[C@](CO)(CF)O[C@H]1n1ccc(N)nc1=O [Compound 40] | – | – | EC50 (Human rhinovirus 1B; [3]): 10 to 100 µM |
| Nc1ccn([C@@H]2O[C@H](COP(=O)(O)OP(=O)(O)OP(=O)(O)O)[C@@H](O)[C@]2(O)CF)c(=O)n1 [compound 276] | < 10 µM | < 1 µM | – |
| C[C@]1(O)[C@H](n2ccc(N)nc2=O)O[C@](C)(COP(=O)(O)OP(=O)(O)OP(=O)(O)O)[C@H]1O [compound 243] | < 10 µM | 1 to 10 µM | – |
| C#C[C@]1(COP(=O)(O)OP(=O)(O)OP(=O)(O)O)O[C@@H](n2ccc(N)nc2=O)C(F)(F)[C@@H]1O [compound 279] | < 10 µM | 10 to 100 µM | – |
| CCOc1nc(NC=O)nc2c1ncn2[C@@H]1O[C@](F)(COP(=O)(N[C@@H](C)C(=O)OC2CCCCC2)Oc2ccccc2)[C@@H](F)[C@@]1(C)O (stereo partly drawn) [Compound 17] | – | – | EC50 (Human rhinovirus 1B): 10 to 100 µM |
| C[C@@]1(O)[C@H](O)[C@@](CF)(CO[P@](O)(=S)OP(=O)(O)OP(=O)(O)O)O[C@H]1n1ccc(=O)[nH]c1=O [Compound 97] | – | – | IC50 [1]: < 10 µM |
| C=C[C@]1(COP(=O)(O)OP(=O)(O)OP(=O)(O)O)O[C@@H](n2ccc(=O)[nH]c2=O)C(F)(F)[C@@H]1O [compound 72] | < 100 µM | 10 to 100 µM | – |
| C=CC[C@@]1(O)[C@H](O)[C@@](CF)(COP(=O)(O)OP(=O)(O)OP(=O)(O)O)O[C@H]1n1ccc(=O)[nH]c1=O [compound 253] | < 10 µM | 10 to 100 µM | – |
| C=C[C@@]1(O)[C@H](O)[C@@](CF)(COP(=O)(O)OP(=O)(O)OP(=O)(O)O)O[C@H]1n1ccc(=O)[nH]c1=O [compound 251] | < 10 µM | – | – |
| C#C[C@@]1(O)[C@H](O)[C@@H](COP(=O)(O)OP(=O)(O)OP(=O)(O)O)O[C@H]1n1cnc2c(N)ncnc21 [compound 202] | < 1 µM | – | – |

| Compound | IC50 [1, 2] | IC50 (NS5B570-Con1 (Delta-21)) | other results |
| --- | --- | --- | --- |
| C=C[C@]1(O)[C@H](n2ccc(=O)[nH]c2=O)O[C@](F)(COP(=O)(O)OP(=O)(O)OP(=O)(O)O)[C@H]1O [compound 236] | < 10 µM | 1 to 10 µM | – |
| CC(C)OC(=O)[C@H](C)NP(=O)(OC[C@@]1(F)O[C@@H](n2ccc(=O)[nH]c2=O)[C@](C)(O)[C@@H]1O)Oc1cccc2ccccc12 (stereo partly drawn) [Compound 150] | – | – | EC50 (Human rhinovirus 1B): 1 to 10 µM |
| C[C@@]1(O)[C@H](O)[C@@](CN=[N+]=[N-])(COP(=O)(O)OP(=O)(O)OP(=O)(O)O)O[C@H]1n1ccc(=O)[nH]c1=O [compound 249] | < 100 µM | 10 to 100 µM | – |
| C#C[C@@]1(O)[C@H](O)[C@@](CCl)(COP(=O)(O)OP(=O)(O)OP(=O)(O)O)O[C@H]1n1cnc2c(N)ncnc21 [compound 245] | < 1 µM | 10 to 100 µM | – |
| C#C[C@@]1(O)[C@H](O)[C@@](CF)(COP(=O)(O)OP(=O)(O)OP(=O)(O)O)O[C@H]1n1ccc(=O)[nH]c1=O [compound 61] | < 1 µM | < 1 µM | – |
| C[C@H](NP(=O)(OC[C@@]1(F)O[C@@H](n2ccc(=O)[nH]c2=O)[C@](C)(O)[C@@H]1O)Oc1ccccc1)C(=O)OC1CCCCC1 (stereo partly drawn) [Compound 8] | – | – | EC50 (Human rhinovirus 1B): 1 to 10 µM |
| Nc1ccn([C@@H]2O[C@](CF)(COP(=O)(O)OP(=O)(O)OP(=O)(O)O)[C@@H](O)C2(F)F)c(=O)n1 [compound 82] | < 1 µM | 10 to 100 µM | – |
| Nc1ncnc2c1ncn2[C@@H]1O[C@H](COP(=O)(O)OP(=O)(O)OP(=O)(O)O)[C@@H](O)[C@]1(O)CF [compound 278] | < 100 µM | 1 to 10 µM | – |
| C#C[C@@]1(O)[C@H](O)[C@@H](COP(=O)(O)OP(=O)(O)OP(=O)(O)O)O[C@H]1n1ccc2c(N)ncnc21 [compound 205] | < 1 µM | < 1 µM | – |
| O=c1ccn([C@@H]2O[C@](F)(COP(=O)(O)OP(=O)(O)OP(=O)(O)O)[C@@H](O)[C@]2(O)CF)c(=O)[nH]1 [compound 257] | < 10 µM | – | – |
| C[C@@]1(O)[C@H](O)[C@@](CF)(CO[P@@](O)(=S)OP(=O)(O)OP(=O)(O)O)O[C@H]1n1ccc(=O)[nH]c1=O [Compound 98] | – | 10 to 100 µM | – |
| C[C@@]1(O)[C@H](O)[C@@](CF)(COP(=O)(O)OP(=O)(O)OP(=O)(O)O)O[C@H]1n1ccc2c(N)ncnc21 [compound 254] | < 1 µM | < 1 µM | – |
| N#C[C@@]1(n2ccc(=O)[nH]c2=O)O[C@](CF)(COP(=O)(O)OP(=O)(O)OP(=O)(O)O)[C@@H](O)[C@H]1O [compound 237] | < 1 µM | – | – |
| C[C@]1(F)[C@H](n2ccc(N)nc2=O)O[C@](F)(CO)[C@H]1O [Compound 18] | – | – | EC50 (Human rhinovirus 1B; [3]): 10 to 100 µM |
| C[C@@]1(Cl)[C@H](O)[C@@](CF)(COP(=O)(O)OP(=O)(O)OP(=O)(O)O)O[C@H]1n1ccc(=O)[nH]c1=O [compound 210] | – | 1 to 10 µM | – |
| C[C@@]1(Cl)[C@H](O)[C@@H](COP(=O)(O)OP(=O)(O)OP(=O)(O)O)O[C@H]1n1cnc2c(=O)[nH]c(N)nc21 [compound 246] | < 1 µM | < 1 µM | – |
| CCOc1nc(N)nc2c1ncn2[C@@H]1O[C@](F)(COP(=O)(N[C@@H](C)C(=O)OCC(C)(C)C)Oc2ccccc2)[C@@H](O)[C@@]1(C)O (stereo partly drawn) [Compound 33] | – | – | EC50 (Human rhinovirus 1B): < 1 µM |
| [N-]=[N+]=NC[C@]1(COP(=O)(O)OP(=O)(O)OP(=O)(O)O)O[C@@H](n2ccc(N)nc2=O)[C@H](O)[C@@H]1O [compound 275] | < 10 µM | – | – |
| C#C[C@@]1(n2cnc3c(=O)[nH]c(N)nc32)O[C@H](COP(=O)(O)OP(=O)(O)OP(=O)(O)O)[C@@H](O)[C@H]1F [compound 242] | < 10 µM | – | – |
| CC(C)OC(=O)OCOP1(=O)OC[C@@]2(CF)O[C@@H](n3ccc(=O)[nH]c3=O)[C@](C)(O)[C@@H]2O1 (stereo partly drawn) [Compound 158] | – | – | EC50 (Human rhinovirus 1B; [3]): 10 to 100 µM |
| CC(C)OC(=O)OC(C)OP(=O)(OC[C@@]1(CF)O[C@@H](n2ccc(=O)[nH]c2=O)[C@](C)(O)[C@@H]1O)OC(C)OC(=O)OC(C)C (stereo partly drawn) [Compound 159] | – | – | EC50 (Human rhinovirus 1B; [3]): 10 to 100 µM |
| C[C@H](NP(=O)(OC[C@@]1(F)O[C@@H](n2cnc3c(=O)[nH]c(N)nc32)[C@](C)(O)[C@@H]1O)Oc1ccccc1)C(=O)OC1CCCCC1 (stereo partly drawn) [Compound 7] | – | – | EC50 (Human rhinovirus 1B): 1 to 10 µM |
| N#C[C@@]1(n2ccc(N)nc2=O)O[C@](CF)(COP(=O)(O)OP(=O)(O)OP(=O)(O)O)[C@@H](O)[C@H]1O [compound 238] | < 10 µM | – | – |
| [N-]=[N+]=NC[C@]1(CO)O[C@@H](n2ccc(N)nc2=O)[C@@H](O)[C@@H]1O [Compound 297] | – | – | EC50 (Human rhinovirus 1B; [3]): 10 to 100 µM |
| [N-]=[N+]=NC[C@]1(COP(=O)(O)OP(=O)(O)OP(=O)(O)O)O[C@@H](n2ccc(N)nc2=O)[C@H](F)[C@@H]1O [compound 107] | < 1 µM | – | – |
| CC[C@]1(CO)O[C@@H](n2ccc(N)nc2=O)C(F)(F)[C@@H]1O [Compound 1] | – | – | EC50 (Human rhinovirus 1B; [3]): 1 to 10 µM |
| [N-]=[N+]=NC[C@]1(CO)O[C@@H](n2ccc(N)nc2=O)C(F)(F)[C@@H]1O [Compound 296] | – | – | EC50 (Human rhinovirus 1B; [3]): 1 to 10 µM |
